biological target: T1, chimeric human H3 receptor (Homo sapiens, UniProt Q9Y5N1); assay: Chimeric human H3 receptor screening GTP binding assay (inhibition of histamine-stimulated GTP-gamma35S binding, Example 8); assay type: biochemical; settings: 1 h; assay described in Example 8; symbol "!" in column headed Ki; read-out: Ki ("!": percent inhibition of agonist-induced GTP-gammaS binding to H3)
T1 construct: rat Galpha-i2 (Gnai2, rat); made in house; host or cells: Sf9 insect cells (baculovirus); P2 membranes
Summary of the method: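 Compound tested at 4 μM against 1 μM histamine stimulation; 125 pM GTP-gamma35S binding measured by filtration and scintillation after 60 min at room temperature. Membranes from Sf9 cells expressing chimeric human H3 plus G-protein subunits, in Tris pH 7.4/NaCl/MgCl2/GDP buffer; values are % inhibition after nonspecific subtraction.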

T1 sequence (Q9Y5N1 with tags, fused parts or gaps): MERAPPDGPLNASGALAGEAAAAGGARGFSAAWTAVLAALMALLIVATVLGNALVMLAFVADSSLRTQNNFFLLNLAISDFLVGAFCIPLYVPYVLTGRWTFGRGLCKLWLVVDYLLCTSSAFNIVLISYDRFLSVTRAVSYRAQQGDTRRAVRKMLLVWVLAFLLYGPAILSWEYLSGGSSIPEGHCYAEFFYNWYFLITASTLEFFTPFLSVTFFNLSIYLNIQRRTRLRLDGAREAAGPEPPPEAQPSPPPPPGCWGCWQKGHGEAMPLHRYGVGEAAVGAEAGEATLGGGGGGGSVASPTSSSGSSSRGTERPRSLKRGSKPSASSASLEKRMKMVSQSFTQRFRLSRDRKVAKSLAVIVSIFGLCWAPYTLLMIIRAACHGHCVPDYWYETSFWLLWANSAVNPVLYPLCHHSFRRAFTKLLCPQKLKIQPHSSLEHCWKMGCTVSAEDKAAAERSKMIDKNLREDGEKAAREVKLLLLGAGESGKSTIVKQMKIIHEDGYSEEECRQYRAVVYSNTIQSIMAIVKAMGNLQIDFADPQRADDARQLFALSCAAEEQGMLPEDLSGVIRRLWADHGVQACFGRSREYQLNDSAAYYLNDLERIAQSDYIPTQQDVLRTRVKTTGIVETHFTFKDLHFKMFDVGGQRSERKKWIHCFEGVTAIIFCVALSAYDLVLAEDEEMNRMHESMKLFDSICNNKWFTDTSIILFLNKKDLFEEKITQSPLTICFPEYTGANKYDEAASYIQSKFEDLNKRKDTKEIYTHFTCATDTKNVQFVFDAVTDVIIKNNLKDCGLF

SMILES	inhibition at 4 µM [%]
Cc1ccccc1/C=C/C(=O)N1CCc2cnc(N3CCN(C4CCC4)CC3)nc2CC1 [Compound 572, 2-(4-cyclobutylpiperazin-1-yl)-7-[(2E)-3-(2-methylphenyl)prop-2-enoyl]-6,7,8,9-tetrahydro-5H-pyrimido[4,5-d]azepine]	≥ 90
O=C(c1ccc(Br)s1)N1CCc2cnc(N3CCN(C4CCC4)CC3)nc2CC1 [Compound 449, 7-[(5-bromo-2-thienyl)carbonyl]-2-(4-cyclobutylpiperazin-1-yl)-6,7,8,9-tetrahydro-5H-pyrimido[4,5-d]azepine]	≥ 90
O=C(/C=C/c1cccc(C(F)(F)F)c1)N1CCc2cnc(N3CCN(C4CCC4)CC3)nc2CC1 [Compound 555, 2-(4-cyclobutylpiperazin-1-yl)-7-{(2E)-3-[3-(trifluoromethyl)phenyl]prop-2-enoyl}-6,7,8,9-tetrahydro-5H-pyrimido[4,5-d]azepine]	≥ 90
O=C(c1cccc(C(F)(F)F)c1Cl)N1CCc2cnc(N3CCN(C4CCC4)CC3)nc2CC1 [Compound 437, 7-[2-chloro-3-(trifluoromethyl)benzoyl]-2-(4-cyclobutylpiperazin-1-yl)-6,7,8,9-tetrahydro-5H-pyrimido[4,5-d]azepine]	≥ 90
Cc1cc(C(=O)N2CCc3cnc(N4CCN(C5CCC5)CC4)nc3CC2)n(C(C)(C)C)n1 [Compound 505, 7-[(1-tert-butyl-3-methyl-1H-pyrazol-5-yl)carbonyl]-2-(4-cyclobutylpiperazin-1-yl)-6,7,8,9-tetrahydro-5H-pyrimido[4,5-d]azepine]	≥ 90
CCCSc1ncccc1C(=O)N1CCc2cnc(N3CCN(C4CCC4)CC3)nc2CC1 [Compound 541, 2-(4-cyclobutylpiperazin-1-yl)-7-{[2-(propylthio)pyridin-3-yl]carbonyl}-6,7,8,9-tetrahydro-5H-pyrimido[4,5-d]azepine]	≥ 90
O=C(c1cncc(C#Cc2ccccc2)c1)N1CCc2cnc(N3CCN(C4CCC4)CC3)nc2CC1 [Compound 475, 2-(4-cyclobutylpiperazin-1-yl)-7-{[5-(phenylethynyl)pyridin-3-yl]carbonyl}-6,7,8,9-tetrahydro-5H-pyrimido[4,5-d]azepine]	≥ 90
Cc1ccc(Oc2ncccc2C(=O)N2CCc3cnc(N4CCN(C5CCC5)CC4)nc3CC2)c(C)c1 [Compound 503, 2-(4-cyclobutylpiperazin-1-yl)-7-{[2-(2,4-dimethylphenoxy)pyridin-3-yl]carbonyl}-6,7,8,9-tetrahydro-5H-pyrimido[4,5-d]azepine]	≥ 90

The remaining lines, values ahead:

inhibition at 4 µM [%]	SMILES
≥ 90	COc1ccc(OC)c(C(=O)N2CCc3cnc(N4CCN(C5CCC5)CC4)nc3CC2)c1 [Compound 423, 2-(4-cyclobutylpiperazin-1-yl)-7-(2,5-dimethoxybenzoyl)-6,7,8,9-tetrahydro-5H-pyrimido[4,5-d]azepine]
≥ 90	COc1ncccc1C(=O)N1CCc2cnc(N3CCN(C4CCC4)CC3)nc2CC1 [Compound 498, 2-(4-cyclobutylpiperazin-1-yl)-7-[(2-methoxypyridin-3-yl)carbonyl]-6,7,8,9-tetrahydro-5H-pyrimido[4,5-d]azepine]
≥ 90	Cc1cccc(C)c1C(=O)N1CCc2cnc(N3CCN(C4CCC4)CC3)nc2CC1 [Compound 406, 2-(4-cyclobutylpiperazin-1-yl)-7-(2,6-dimethylbenzoyl)-6,7,8,9-tetrahydro-5H-pyrimido[4,5-d]azepine]

same assay, conditions: 1 h; assay of Example 8; symbol "!" in column headed Ki; read-out: percent inhibition of agonist-induced GTP-gammaS binding to H3

SMILES	inhibition at 4 µM [%]
O=C(COc1ccc(Cl)cc1)N1CCc2cnc(N3CCN(C4CCC4)CC3)nc2CC1 [Compound 326, 7-[(4-chlorophenoxy)acetyl]-2-(4-cyclobutylpiperazin-1-yl)-6,7,8,9-tetrahydro-5H-pyrimido[4,5-d]azepine]	≥ 90
O=C(c1cccnc1)N1CCc2cnc(N3CCN(C4CCC4)CC3)nc2CC1 [Compound 198, 2-(4-cyclobutylpiperazin-1-yl)-7-(pyridin-3-ylcarbonyl)-6,7,8,9-tetrahydro-5H-pyrimido[4,5-d]azepine]	≥ 90
O=C(Cc1ccc(F)cc1F)N1CCc2cnc(N3CCN(C4CCC4)CC3)nc2CC1 [Compound 286, 2-(4-cyclobutylpiperazin-1-yl)-7-[(2,4-difluorophenyl)acetyl]-6,7,8,9-tetrahydro-5H-pyrimido[4,5-d]azepine]	≥ 90
CC(Oc1ccc(Cl)cc1)C(=O)N1CCc2cnc(N3CCN(C4CCC4)CC3)nc2CC1 (stereo not drawn) [Compound 345, 7-[2-(4-chlorophenoxy)propanoyl]-2-(4-cyclobutylpiperazin-1-yl)-6,7,8,9-tetrahydro-5H-pyrimido[4,5-d]azepine]	≥ 90
Clc1ccccc1CN1CCc2cnc(N3CCN(C4CCC4)CC3)nc2CC1 [Compound 265, 7-(2-chlorobenzyl)-2-(4-cyclobutylpiperazin-1-yl)-6,7,8,9-tetrahydro-5H-pyrimido[4,5-d]azepine]	≥ 90
Cc1ccc(C(=O)N2CCc3cnc(N4CCN(C5CCC5)CC4)nc3CC2)cc1 [Compound 188, 2-(4-cyclobutylpiperazin-1-yl)-7-(4-methylbenzoyl)-6,7,8,9-tetrahydro-5H-pyrimido[4,5-d]azepine]	≥ 90
O=C(Cc1ccc(C(F)(F)F)cc1)N1CCc2cnc(N3CCN(C4CCC4)CC3)nc2CC1 [Compound 287, 2-(4-cyclobutylpiperazin-1-yl)-7-{[4-(trifluoromethyl)phenyl]acetyl}-6,7,8,9-tetrahydro-5H-pyrimido[4,5-d]azepine]	≥ 90
O=C(COc1ccccc1Cl)N1CCc2cnc(N3CCN(C4CCC4)CC3)nc2CC1 [Compound 320, 7-[(2-chlorophenoxy)acetyl]-2-(4-cyclobutylpiperazin-1-yl)-6,7,8,9-tetrahydro-5H-pyrimido[4,5-d]azepine]	≥ 90

Results, then the compound that gave them:

inhibition at 4 µM [%]	SMILES
≥ 90	COc1ccccc1C(=O)N1CCc2cnc(N3CCN(C4CCC4)CC3)nc2CC1 [Compound 192, 2-(4-cyclobutylpiperazin-1-yl)-7-(2-methoxybenzoyl)-6,7,8,9-tetrahydro-5H-pyrimido[4,5-d]azepine]
≥ 90	COc1cccc(C(=O)N2CCc3cnc(N4CCN(C5CCC5)CC4)nc3CC2)c1 [Compound 190, 2-(4-cyclobutylpiperazin-1-yl)-7-(3-methoxybenzoyl)-6,7,8,9-tetrahydro-5H-pyrimido[4,5-d]azepine]
≥ 90	Cc1ccc(OCC(=O)N2CCc3cnc(N4CCN(C5CCC5)CC4)nc3CC2)c(C)c1 [Compound 333, 2-(4-cyclobutylpiperazin-1-yl)-7-[(2,4-dimethylphenoxy)acetyl]-6,7,8,9-tetrahydro-5H-pyrimido[4,5-d]azepine]
≥ 90	Cc1ccc(C(=O)N2CCc3cnc(N4CCN(C5CCC5)CC4)nc3CC2)cc1C [Compound 360, 2-(4-cyclobutylpiperazin-1-yl)-7-(3,4-dimethylbenzoyl)-6,7,8,9-tetrahydro-5H-pyrimido[4,5-d]azepine]
≥ 90	CCOc1ccc(CC(=O)N2CCc3cnc(N4CCN(C5CCC5)CC4)nc3CC2)cc1OC [Compound 275, 2-(4-cyclobutylpiperazin-1-yl)-7-[(4-ethoxy-3-methoxyphenyl)acetyl]-6,7,8,9-tetrahydro-5H-pyrimido[4,5-d]azepine]

same assay, conditions: symbol ! in Ki; test compound 4 μM, 1 μM histamine; read-out: percent inhibition of agonist-induced GTP-gammaS binding to H3

SMILES	inhibition at 4 µM [%]
CCC(C)CN1CCc2nc(N3CCN(C4CCC4)CC3)ncc2C1 (stereo not drawn) [Compound 632, 2-(4-cyclobutylpiperazin-1-yl)-6-(2-methylbutyl)-5,6,7,8-tetrahydropyrido[4,3-d]pyrimidine]	≥ 90
Clc1ccccc1CN1CCc2nc(N3CCN(C4CCC4)CC3)ncc2C1 [Compound 645, 6-(2-chlorobenzyl)-2-(4-cyclobutylpiperazin-1-yl)-5,6,7,8-tetrahydropyrido[4,3-d]pyrimidine]	≥ 90
CC(C)CN1CCc2nc(N3CCN(C4CCC4)CC3)ncc2C1 [Compound 631, 2-(4-cyclobutylpiperazin-1-yl)-6-isobutyl-5,6,7,8-tetrahydropyrido[4,3-d]pyrimidine]	≥ 90

More lines, now with the values ahead:

inhibition at 4 µM [%]	SMILES
≥ 90	CC(C)c1ccc(C(=O)N2CCc3c(ncnc3N3CCN(C4CCC4)CC3)C2)cc1 [Compound 41, 4-(4-cyclobutylpiperazin-1-yl)-7-(4-isopropylbenzoyl)-5,6,7,8-tetrahydropyrido[3,4-d]pyrimidine]
≥ 90	CCCCCN1CCc2c(ncnc2N2CCN(C3CCC3)CC2)C1 [Compound 84, 4-(4-cyclobutylpiperazin-1-yl)-7-pentyl-5,6,7,8-tetrahydropyrido[3,4-d]pyrimidine]
≥ 90	COc1cccc(C(C)N2CCc3c(ncnc3N3CCN(C4CCC4)CC3)C2)c1OC (stereo not drawn) [Compound 131, 4-(4-cyclobutylpiperazin-1-yl)-7-[1-(2,3-dimethoxyphenyl)ethyl]-5,6,7,8-tetrahydropyrido[3,4-d]pyrimidine]
≥ 90	CCn1cncc1CN1CCc2ncnc(N3CCN(C4CCC4)CC3)c2CC1 [Compound 177, 4-(4-cyclobutylpiperazin-1-yl)-7-[(1-ethyl-1H-imidazol-5-yl)methyl]-6,7,8,9-tetrahydro-5H-pyrimido[4,5-d]azepine]
≥ 90	COc1ccc(OC)c(CN2CCc3nc(N4CCN(C5CCC5)CC4)ncc3C2)c1 [Compound 641, 2-(4-cyclobutylpiperazin-1-yl)-6-(2,5-dimethoxybenzyl)-5,6,7,8-tetrahydropyrido[4,3-d]pyrimidine]
≥ 90	CC(c1ccc(N2CCOCC2)nc1)N1CCc2c(ncnc2N2CCN(C3CCC3)CC2)C1 (stereo not drawn) [Compound 111, 4-(4-cyclobutylpiperazin-1-yl)-7-[1-(6-morpholin-4-ylpyridin-3-yl)ethyl]-5,6,7,8-tetrahydropyrido[3,4-d]pyrimidine]

From patent publication US20080051387A1, “TETRAHYDROPYRIDO[3,4-D]PYRIMIDINES AND RELATED ANALOGUES” (priority 2006, published 2008)
